The values that follow come from patent US20240109917A1 (ACTELION PHARMACEUTICALS LTD, priority 2020, published 2024).

Sequence of VEGFR2, unphosphorylated (P35968 20-1356): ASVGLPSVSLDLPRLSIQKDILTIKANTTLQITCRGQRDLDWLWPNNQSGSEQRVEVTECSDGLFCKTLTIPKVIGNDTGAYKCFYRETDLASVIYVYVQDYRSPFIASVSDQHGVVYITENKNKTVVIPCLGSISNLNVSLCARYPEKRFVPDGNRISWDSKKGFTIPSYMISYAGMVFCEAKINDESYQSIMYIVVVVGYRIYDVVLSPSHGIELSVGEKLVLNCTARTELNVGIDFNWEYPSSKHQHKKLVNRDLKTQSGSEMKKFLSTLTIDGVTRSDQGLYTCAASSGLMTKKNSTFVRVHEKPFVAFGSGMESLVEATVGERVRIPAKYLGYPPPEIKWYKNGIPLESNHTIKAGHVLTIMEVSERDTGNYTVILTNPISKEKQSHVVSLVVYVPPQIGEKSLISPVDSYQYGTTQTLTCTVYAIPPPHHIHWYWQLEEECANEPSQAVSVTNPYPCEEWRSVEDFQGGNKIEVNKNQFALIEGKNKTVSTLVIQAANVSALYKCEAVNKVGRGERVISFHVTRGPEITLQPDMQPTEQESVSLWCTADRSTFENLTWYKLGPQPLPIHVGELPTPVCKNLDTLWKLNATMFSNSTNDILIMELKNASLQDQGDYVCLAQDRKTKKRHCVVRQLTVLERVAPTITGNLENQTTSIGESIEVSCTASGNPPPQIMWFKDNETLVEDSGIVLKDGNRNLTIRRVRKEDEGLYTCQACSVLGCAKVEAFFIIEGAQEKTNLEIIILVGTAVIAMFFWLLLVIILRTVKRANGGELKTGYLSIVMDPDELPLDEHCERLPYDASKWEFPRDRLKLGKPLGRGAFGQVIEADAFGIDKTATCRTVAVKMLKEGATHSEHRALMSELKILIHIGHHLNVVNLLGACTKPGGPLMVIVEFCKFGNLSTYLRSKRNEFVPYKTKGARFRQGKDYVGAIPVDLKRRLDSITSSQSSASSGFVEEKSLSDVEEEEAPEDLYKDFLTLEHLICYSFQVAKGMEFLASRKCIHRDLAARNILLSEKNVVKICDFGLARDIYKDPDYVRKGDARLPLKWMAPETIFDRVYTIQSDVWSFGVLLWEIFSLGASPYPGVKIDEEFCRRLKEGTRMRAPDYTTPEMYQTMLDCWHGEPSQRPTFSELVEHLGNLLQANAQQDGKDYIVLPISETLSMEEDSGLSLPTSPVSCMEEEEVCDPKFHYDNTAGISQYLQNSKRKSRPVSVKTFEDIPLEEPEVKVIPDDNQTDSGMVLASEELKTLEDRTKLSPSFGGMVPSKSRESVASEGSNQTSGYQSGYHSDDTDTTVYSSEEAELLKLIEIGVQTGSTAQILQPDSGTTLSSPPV

The assay concerns the target VEGFR2, unphosphorylated (Homo sapiens (Human), UniProt P35968). Description: VEGFR ADP GLO Assay. It is filed as biochemical. In general terms: ADP-Glo turns the ADP formed in a reaction into a luminescent signal.
`Cc1ncc(NC(=O)CCN2CCC3(CC3)C2)cc1NC(=O)c1cnn2cc(-c3cnn(C)c3)sc12` [Example 104, N-(5-(3-(5-azaspiro[2.4]heptan-5-yl)propanamido)-2-methylpyridin-3-yl)-2-(1-methyl-1H-pyrazol-4-yl)pyrazolo[5,1-b]thiazole-7-carboxamide] registered an IC50 of over 7.5 µM. In turn, `Cc1ncc(C(=O)NCCN2CCC(F)(F)CC2)cc1NC(=O)c1cnn2cc(-c3ccncc3)sc12` [Example 154, N-(5-((2-(4,4-difluoropiperidin-1-yl)ethyl)carbamoyl)-2-methylpyridin-3-yl)-2-(pyridin-4-yl)pyrazolo[5,1-b]thiazole-7-carboxamide] displayed an IC50 of over 7.5 µM. Compound `Cc1ncc(C(=O)NCCN2CCCC2(C)C)cc1NC(=O)c1cnn2cc(-c3ccc(=O)[nH]n3)sc12` [Example 141, N-(5-((2-(2,2-dimethylpyrrolidin-1-yl)ethyl)carbamoyl)-2-methylpyridin-3-yl)-2-(6-oxo-1,6-dihydropyridazin-3-yl)pyrazolo[5,1-b]thiazole-7-carboxamide] gave a half-inhibitory concentration (IC50) of over 7.5 µM.

Compound `Cc1ncc(C(=O)NCCN2CCC3(CCOC3)C2)cc1NC(=O)c1cnn2cc(-c3cnn(C)c3)sc12` (stereo not shown) [Example 116, N-(5-((2-(2-oxa-7-azaspiro[4.4]nonan-7-yl)ethyl)carbamoyl)-2-methylpyridin-3-yl)-2-(1-methyl-1H-pyrazol-4-yl)pyrazolo[5,1-b]thiazole-7-carboxamide] displayed an IC50 of over 7.5 µM.

For `COCCn1cc(-c2cn3ncc(C(=O)Nc4cc(NC(=O)CCN5CC6CCC5CC6)cnc4C)c3s2)cn1` [Example 100, N-(5-(3-(2-azabicyclo[2.2.2]octan-2-yl)propanamido)-2-methylpyridin-3-yl)-2-(1-(2-methoxyethyl)-1H-pyrazol-4-yl)pyrazolo[5,1-b]thiazole-7-carboxamide], the IC50 is over 7.5 µM. For the compound `Cc1ncc(C(=O)NCCN2CCCC2(C)C)cc1NC(=O)c1cnn2cc(-c3cn(C)nc3C)sc12` [Example 174, 2-(1,3-dimethyl-1H-pyrazol-4-yl)-N-(5-((2-(2,2-dimethylpyrrolidin-1-yl)ethyl)carbamoyl)-2-methylpyridin-3-yl)pyrazolo[5,1-b]thiazole-7-carboxamide], the IC50 is over 7.5 µM. Regarding `Cc1ncc(C(=O)NCCN2CCC(F)(F)C2)cc1NC(=O)c1cnn2cc(-c3cnn(C)c3)sc12` [Example 120, N-(5-((2-(3,3-difluoropyrrolidin-1-yl)ethyl)carbamoyl)-2-methylpyridin-3-yl)-2-(1-methyl-1H-pyrazol-4-yl)pyrazolo[5,1-b]thiazole-7-carboxamide], the IC50 was over 7.5 µM. Consider `Cc1ncc(NC(=O)CCCN2CCC[C@@H]2C)cc1NC(=O)c1cnn2cc(-c3cnn(C)c3)sc12` [Example 106, (S)-2-(1-methyl-1H-pyrazol-4-yl)-N-(2-methyl-5-(4-(2-methylpyrrolidin-1-yl)butanamido)pyridin-3-yl)pyrazolo[5,1-b]thiazole-7-carboxamide], for which the IC50 was over 7.5 µM. Consider `Cc1ncc(C(=O)NCCN2CCC3(CC3)C2)cc1NC(=O)c1cnn2cc(-c3cn(C)cn3)sc12` [Example 162, N-(5-((2-(5-azaspiro[2.4]heptan-5-yl)ethyl)carbamoyl)-2-methylpyridin-3-yl)-2-(1-methyl-1H-imidazol-4-yl)pyrazolo[5,1-b]thiazole-7-carboxamide], for which the IC50 is over 7.5 µM. In the case of `Cc1ncc(C(=O)NCCN2CC(F)(F)C2)cc1NC(=O)c1cnn2cc(-c3ccncc3)sc12` [Example 152, N-(5-((2-(3,3-difluoroazetidin-1-yl)ethyl)carbamoyl)-2-methylpyridin-3-yl)-2-(pyridin-4-yl)pyrazolo[5,1-b]thiazole-7-carboxamide], the IC50 was over 7.5 µM.

The compound `Cc1ncc(C(=O)NCCN2CCCC2(C)C)cc1NC(=O)c1cnn2cc(-c3cnn(CCO)c3)sc12` [Example 140, N-(5-((2-(2,2-dimethylpyrrolidin-1-yl)ethyl)carbamoyl)-2-methylpyridin-3-yl)-2-(1-(2-hydroxyethyl)-1H-pyrazol-4-yl)pyrazolo[5,1-b]thiazole-7-carboxamide] gave an IC50 of over 7.5 µM. `Cc1ncc(C(=O)NCCN2CCC3(CC3)C2)cc1NC(=O)c1cnn2cc(-c3ccncc3)sc12` [Example 153, N-(5-((2-(5-azaspiro[2.4]heptan-5-yl)ethyl)carbamoyl)-2-methylpyridin-3-yl)-2-(pyridin-4-yl)pyrazolo[5,1-b]thiazole-7-carboxamide] displayed an IC50 of over 7.5 µM. `Cc1ncc(NC(=O)NCC2CCN(C(C)C)CC2)cc1NC(=O)c1cnn2cc(-c3cnn(C)c3)sc12` [Example 109, N-(5-(3-((1-isopropylpiperidin-4-yl)methyl)ureido)-2-methylpyridin-3-yl)-2-(1-methyl-1H-pyrazol-4-yl)pyrazolo[5,1-b]thiazole-7-carboxamide] displayed an IC50 of over 7.5 µM. For the compound `Cc1ncc(C(=O)NCCN2CC(C)(C)C2)cc1NC(=O)c1cnn2cc(-c3cn(C)cn3)sc12` [Example 161], the IC50 was over 7.5 µM. Next, `Cc1ncc(C(=O)NCCN2CC3CCC2CC3)cc1NC(=O)c1cnn2cc(-c3cnn(C)c3C)sc12` [Example 171, N-(5-((2-(2-azabicyclo[2.2.2]octan-2-yl)ethyl)carbamoyl)-2-methylpyridin-3-yl)-2-(1,5-dimethyl-1H-pyrazol-4-yl)pyrazolo[5,1-b]thiazole-7-carboxamide]: over 7.5 µM; `Cc1ncc(NC(=O)CCN2CCCC23CC3)cc1NC(=O)c1cnn2cc(-c3cnn(C)c3)sc12` [Example 98]: over 7.5 µM.

Take `Cc1ncc(C(=O)NCCN2CCC(F)(F)CC2)cc1NC(=O)c1cnn2cc(-c3cccnc3)sc12` [Example 157, N-(5-((2-(4,4-difluoropiperidin-1-yl)ethyl)carbamoyl)-2-methylpyridin-3-yl)-2-(pyridin-3-yl)pyrazolo[5,1-b]thiazole-7-carboxamide]: the IC50 is over 7.5 µM. Regarding `COCCn1nc(C)c(-c2cn3ncc(C(=O)Nc4cc(NC(=O)CCN5CCC6(CC6)C5)cnc4C)c3s2)c1C` [Example 103, N-(5-(3-(5-azaspiro[2.4]heptan-5-yl)propanamido)-2-methylpyridin-3-yl)-2-(1-(2-methoxyethyl)-3,5-dimethyl-1H-pyrazol-4-yl)pyrazolo[5,1-b]thiazole-7-carboxamide], the IC50 was over 7.5 µM. Turning to `Cc1ncc(C(=O)NCCN2CC(C)(C)C2)cc1NC(=O)c1cnn2cc(-c3cccnc3)sc12` [Example 158, N-(5-((2-(3,3-dimethylazetidin-1-yl)ethyl)carbamoyl)-2-methylpyridin-3-yl)-2-(pyridin-3-yl)pyrazolo[5,1-b]thiazole-7-carboxamide], the IC50 was over 7.5 µM.

`Cc1ncc(C(=O)NCCN2CCCC2(C)C)cc1NC(=O)c1cnn2cc(-c3cn(C)cn3)sc12` [Example 163, N-(5-((2-(2,2-dimethylpyrrolidin-1-yl)ethyl)carbamoyl)-2-methylpyridin-3-yl)-2-(1-methyl-1H-imidazol-4-yl)pyrazolo[5,1-b]thiazole-7-carboxamide] showed an IC50 of over 7.5 µM. Next, `Cc1ncc(C(=O)NCCN2C3CCC2COC3)cc1NC(=O)c1cnn2cc(-c3cnn(C)c3)sc12` [Example 122, N-(5-((2-(3-oxa-8-azabicyclo[3.2.1]octan-8-yl)ethyl)carbamoyl)-2-methylpyridin-3-yl)-2-(1-methyl-1H-pyrazol-4-yl)pyrazolo[5,1-b]thiazole-7-carboxamide]: over 7.5 µM; `COCCn1nc(C)c(-c2cn3ncc(C(=O)Nc4cc(NC(=O)CCN5CC6CCC(C5)O6)cnc4C)c3s2)c1C` [Example 102, N-(5-(3-(8-oxa-3-azabicyclo[3.2.1]octan-3-yl)propanamido)-2-methylpyridin-3-yl)-2-(1-(2-methoxyethyl)-3,5-dimethyl-1H-pyrazol-4-yl)pyrazolo[5,1-b]thiazole-7-carboxamide]: over 7.5 µM. In turn, `Cc1ncc(C(=O)NCCN2C3CCC2CC3)cc1NC(=O)c1cnn2cc(-c3cnn(C)c3C)sc12` [Example 172, N-(5-((2-(7-azabicyclo[2.2.1]heptan-7-yl)ethyl)carbamoyl)-2-methylpyridin-3-yl)-2-(1,5-dimethyl-1H-pyrazol-4-yl)pyrazolo[5,1-b]thiazole-7-carboxamide] gave an IC50 of over 7.5 µM. Next, `Cc1ncc(C(=O)NCCN2CC(F)(F)C2)cc1NC(=O)c1cnn2cc(-c3cnn(C)c3)sc12` [Example 125, N-(5-((2-(3,3-difluoroazetidin-1-yl)ethyl)carbamoyl)-2-methylpyridin-3-yl)-2-(1-methyl-1H-pyrazol-4-yl)pyrazolo[5,1-b]thiazole-7-carboxamide]: over 7.5 µM. Next, `Cc1ncc(C(=O)NCCN2CCCC2(C)C)cc1NC(=O)c1cnn2cc(-c3ccncc3)sc12` [Example 7, N-(5-((2-(2,2-dimethylpyrrolidin-1-yl)ethyl)carbamoyl)-2-methyl-pyridin-3-yl)-2-(pyridin-4-yl)pyrazolo[5,1-b]thiazole-7-carboxamide]: over 7.5 µM; `Cc1ncc(C(=O)NCCN2CCCC2(C)C)cc1NC(=O)c1cnn2cc(-c3cnn(C4CC4)c3)sc12` [Example 6, 2-(1-cyclopropyl-1H-pyrazol-4-yl)-N-(5-((2-(2,2-dimethylpyrrolidin-1-yl)ethyl)carbamoyl)-2-methylpyridin-3-yl)pyrazolo[5,1-b]thiazole-7-carboxamide]: over 7.5 µM; `Cc1ncc(C(=O)NCCN2CCC3(CC3)C2)cc1NC(=O)c1cnn2cc(-c3cnn(C)c3)sc12` [Example 118, N-(5-((2-(5-azaspiro[2.4]heptan-5-yl)ethyl)carbamoyl)-2-methylpyridin-3-yl)-2-(1-methyl-1H-pyrazol-4-yl)pyrazolo[5,1-b]thiazole-7-carboxamide]: over 7.5 µM.

`Cc1ncc(C(=O)NCCN2CCC3(CC3)C2)cc1NC(=O)c1cnn2cc(-c3cnn(C)c3C)sc12` [Example 170, N-(5-((2-(5-azaspiro[2.4]heptan-5-yl)ethyl)carbamoyl)-2-methylpyridin-3-yl)-2-(1,5-dimethyl-1H-pyrazol-4-yl)pyrazolo[5,1-b]thiazole-7-carboxamide] registered an IC50 of over 7.5 µM.

For orientation: IC50 means the concentration that gives 50% inhibition. The low end stands for greater potency, the high end for weaker potency.
